A value given as a limit tells only on which side of the number the result lay.

Usually IC50 stands for the concentration that inhibits the measured activity by half. High values mean weaker potency, low ones greater potency.

Serine/threonine-protein kinase PLK1, sequence (P53350 whole entry, the tested form may be a part): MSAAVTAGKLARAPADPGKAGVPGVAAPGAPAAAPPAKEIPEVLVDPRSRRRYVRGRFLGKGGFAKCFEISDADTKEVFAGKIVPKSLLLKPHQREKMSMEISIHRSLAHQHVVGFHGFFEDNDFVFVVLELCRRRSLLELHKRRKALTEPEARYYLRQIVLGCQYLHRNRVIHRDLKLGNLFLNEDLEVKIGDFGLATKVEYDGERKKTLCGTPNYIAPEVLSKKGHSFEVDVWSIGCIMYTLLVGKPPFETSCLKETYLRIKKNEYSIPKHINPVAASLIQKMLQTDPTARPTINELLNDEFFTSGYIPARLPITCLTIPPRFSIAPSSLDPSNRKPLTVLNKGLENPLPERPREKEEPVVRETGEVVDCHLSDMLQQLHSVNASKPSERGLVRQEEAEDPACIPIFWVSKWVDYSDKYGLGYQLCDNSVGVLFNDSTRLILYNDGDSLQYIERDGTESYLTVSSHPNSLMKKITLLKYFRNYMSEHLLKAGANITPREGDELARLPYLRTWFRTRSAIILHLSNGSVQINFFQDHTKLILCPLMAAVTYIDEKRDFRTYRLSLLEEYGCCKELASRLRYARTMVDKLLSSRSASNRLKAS

The experiment addresses Serine/threonine-protein kinase PLK1 (Homo sapiens, UniProt P53350). Put plainly: Plk1 polo box domain binding inhibitors, dose response, biochemical, fluorescence polarization (AID 877). (In fluorescence polarisation assays a small probe gives low polarisation when free and higher when bound to something large.)
`CC(=O)N(N=C1Sc2ccccc2C1=O)c1cccc(C)c1` [N-(3-methylphenyl)-N-[(3-oxidanylidene-1-benzothiophen-2-ylidene)amino]ethanamide]: the IC50 was found to be 32.9 µM.

Take `CC(C)N(Cc1cc2ccccc2[nH]c1=O)C(=O)c1cccnc1` [N-[(2-oxo-1H-quinolin-3-yl)methyl]-N-propan-2-ylpyridine-3-carboxamide]: the IC50 is over 50 µM.

As for `CC(=O)N(N=C1Sc2ccccc2C1=O)c1ccccc1` [N-[(Z)-(3-ketobenzothiophen-2-ylidene)amino]-N-phenyl-acetamide], the IC50 is over 50 µM.

`Cc1cccc2[nH]c3c(N4CCN(C(=O)c5ccco5)CC4)ncnc3c12` [SMR000148910]: the IC50 is over 50 µM.

The molecule `NC(=O)C1CCN(C2=C(Cl)C(=O)c3ccccc3C2=O)CC1` [SMR000180199] had an IC50 of 33.3 µM.

The molecule `COC(=O)c1ccccc1NC1=CC(=NS(=O)(=O)c2cccs2)c2ccccc2C1=O` [methyl 2-[[(4E)-1-oxidanylidene-4-thiophen-2-ylsulfonylimino-naphthalen-2-yl]amino]benzoate] had an IC50 of over 50 µM.

The values above are taken from BindingDB's records for doi:10.7270/Q2T72FVT (University of Pittsburgh, 2007).
